{"source": "ChEMBL document CHEMBL1201862", "about": "“PubChem BioAssay data set” (2004)", "key": {"[1]": {"target": "T1, Endoribonuclease toxin MazF (Escherichia coli K-12, UniProt P0AE70)", "T1 sequence (P0AE70 whole entry)": "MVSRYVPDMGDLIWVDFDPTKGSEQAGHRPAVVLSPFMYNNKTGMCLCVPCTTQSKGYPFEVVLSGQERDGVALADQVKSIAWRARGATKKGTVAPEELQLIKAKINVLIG", "experiment": "MazF toxin RNase activators, dose response, biochemical, fluorescence, single-stranded RNA substrate, uHTS hits (AID 588481)", "type": "functional"}, "[2]": {"target": "T2, Sentrin-specific protease 8 (Homo sapiens, UniProt Q96LD8)", "T2 sequence (Q96LD8 whole entry)": "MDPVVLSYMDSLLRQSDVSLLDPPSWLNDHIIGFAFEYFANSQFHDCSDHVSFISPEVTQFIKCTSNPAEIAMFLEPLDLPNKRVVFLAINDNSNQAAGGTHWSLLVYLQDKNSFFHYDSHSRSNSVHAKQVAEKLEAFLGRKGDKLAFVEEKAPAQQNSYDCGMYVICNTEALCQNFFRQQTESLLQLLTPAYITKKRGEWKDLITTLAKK", "type": "functional"}, "[3]": {"target": "T3, Zinc finger protein mex-5 (Caenorhabditis elegans, UniProt Q9XUB2)", "T3 sequence (Q9XUB2 whole entry)": "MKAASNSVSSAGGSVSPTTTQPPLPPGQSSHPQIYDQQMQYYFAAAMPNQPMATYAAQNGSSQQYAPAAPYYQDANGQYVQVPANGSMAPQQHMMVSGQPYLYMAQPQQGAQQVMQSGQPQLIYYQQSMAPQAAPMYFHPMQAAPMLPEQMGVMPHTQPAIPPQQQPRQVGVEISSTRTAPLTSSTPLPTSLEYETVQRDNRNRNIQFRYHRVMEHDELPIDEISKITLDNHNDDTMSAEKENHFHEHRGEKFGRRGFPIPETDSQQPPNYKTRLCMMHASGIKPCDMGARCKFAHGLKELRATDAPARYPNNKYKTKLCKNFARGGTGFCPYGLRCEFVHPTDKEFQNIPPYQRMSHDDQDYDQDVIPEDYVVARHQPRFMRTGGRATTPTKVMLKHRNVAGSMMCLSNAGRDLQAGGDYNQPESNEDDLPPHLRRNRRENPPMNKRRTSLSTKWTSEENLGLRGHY", "experiment": "MEX-5/TCR-2 RNA interaction inhibitors, dose response, biochemical, C. elegans, fluorescence polarization (AID 1960)"}, "[4]": {"experiment": "A375 melanoma cell viability loss, dose response, counter-screen for MITF inhibitor project, CellTiter-Glo luminescence, dry powder, set 4 (AID 624364);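 note: A375 melanoma cells are MITF independent so this is a counter screen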", "type": "functional, cell-based", "details": "A-375"}, "[5]": {"target": "T4, Replicative DNA helicase DnaB (Mycobacterium tuberculosis, UniProt P9WMR3)", "T4 sequence (P9WMR3 whole entry)": "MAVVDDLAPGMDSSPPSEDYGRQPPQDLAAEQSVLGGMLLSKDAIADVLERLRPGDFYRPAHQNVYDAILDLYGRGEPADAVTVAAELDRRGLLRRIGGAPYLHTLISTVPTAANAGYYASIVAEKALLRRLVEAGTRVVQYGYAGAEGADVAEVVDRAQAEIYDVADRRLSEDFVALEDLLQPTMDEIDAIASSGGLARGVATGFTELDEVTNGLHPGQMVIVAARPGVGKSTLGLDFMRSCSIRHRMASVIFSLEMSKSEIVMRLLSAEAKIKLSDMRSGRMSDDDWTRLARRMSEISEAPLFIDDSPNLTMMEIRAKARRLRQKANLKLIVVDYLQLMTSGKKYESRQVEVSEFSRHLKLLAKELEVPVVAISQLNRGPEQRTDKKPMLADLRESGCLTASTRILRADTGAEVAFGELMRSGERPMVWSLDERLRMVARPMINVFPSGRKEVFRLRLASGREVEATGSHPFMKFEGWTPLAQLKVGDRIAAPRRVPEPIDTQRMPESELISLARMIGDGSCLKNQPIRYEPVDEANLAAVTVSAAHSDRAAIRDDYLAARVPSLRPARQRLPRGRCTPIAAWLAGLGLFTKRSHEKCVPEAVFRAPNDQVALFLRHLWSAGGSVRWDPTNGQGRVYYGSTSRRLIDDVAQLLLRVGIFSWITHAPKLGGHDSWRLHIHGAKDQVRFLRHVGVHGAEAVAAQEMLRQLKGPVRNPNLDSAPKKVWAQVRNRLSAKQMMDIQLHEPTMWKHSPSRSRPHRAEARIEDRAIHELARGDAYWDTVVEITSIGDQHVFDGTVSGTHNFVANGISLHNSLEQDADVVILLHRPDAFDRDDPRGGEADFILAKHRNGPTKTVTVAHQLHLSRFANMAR", "experiment": "DnaB intein splicing inhibitors, dose response, biochemical, cell-free fluorescence (AID 449749)", "type": "functional"}, "Protein RecA": {"target": "T5, Protein RecA (Mycobacterium tuberculosis, UniProt P9WHJ3)", "T5 sequence (P9WHJ3 whole entry)": "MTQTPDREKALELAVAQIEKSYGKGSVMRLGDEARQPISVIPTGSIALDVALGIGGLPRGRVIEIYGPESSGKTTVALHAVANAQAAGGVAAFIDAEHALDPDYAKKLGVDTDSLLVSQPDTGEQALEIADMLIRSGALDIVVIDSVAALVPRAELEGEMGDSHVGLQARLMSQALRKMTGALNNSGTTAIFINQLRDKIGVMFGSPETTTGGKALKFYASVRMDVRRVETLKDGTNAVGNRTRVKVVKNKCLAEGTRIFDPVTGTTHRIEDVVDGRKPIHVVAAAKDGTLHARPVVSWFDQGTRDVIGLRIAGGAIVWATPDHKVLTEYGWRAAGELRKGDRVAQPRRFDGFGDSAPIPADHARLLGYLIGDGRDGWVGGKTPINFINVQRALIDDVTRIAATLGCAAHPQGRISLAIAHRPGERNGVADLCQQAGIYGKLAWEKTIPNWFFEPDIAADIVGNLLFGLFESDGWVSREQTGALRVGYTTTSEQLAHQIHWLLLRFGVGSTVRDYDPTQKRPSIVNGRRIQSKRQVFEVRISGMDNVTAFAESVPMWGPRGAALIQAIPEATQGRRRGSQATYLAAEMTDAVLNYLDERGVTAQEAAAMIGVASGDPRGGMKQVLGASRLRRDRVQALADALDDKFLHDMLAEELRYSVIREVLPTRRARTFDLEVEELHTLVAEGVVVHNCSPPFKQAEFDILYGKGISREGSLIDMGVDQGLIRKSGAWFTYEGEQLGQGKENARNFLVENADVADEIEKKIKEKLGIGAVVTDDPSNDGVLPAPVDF", "experiment": "Fluorescence Cell-Free Homogeneous Dose Retest to Identify Inhibitors of RecA-Intein Splicing Activity. [Related pubchem assays (depositor defined):AID2097, AID2223, AID489010, AID492950]", "type": "functional"}}, "note": "Calls of active or inactive are those of the source.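 Throughout, for IC50: luminescence read-out of SENP8 inhibition, dose-response confirmation following an ultra-high-throughput screen.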", "data": [{"compound": "Oc1[nH]c2ccccc2c1N=Nc1ccc(F)cc1", "values": [{"measurement": "EC50", "setting": "[1]", "result": "> 99 µM (inactive)"}, {"measurement": "IC50", "setting": "[2]", "result": "3.07 µM (active)"}, {"measurement": "EC50", "setting": "[3]", "result": "> 300 µM (inconclusive)"}]}, {"compound": "O=C1C(Nc2ccccc2)=C(N2CCCCC2)C(=O)c2ccccc21", "values": [{"measurement": "AC50", "setting": "[4]", "result": "37.4 µM (active)"}, {"measurement": "AC50", "setting": "[5]", "result": "68.5 µM (active)"}, {"measurement": "EC50", "setting": "Protein RecA", "result": "2.21 µM (active)"}]}]}
